Data from US9034884B2, “Heterocyclic-substituted pyrrolopyridines and pyrrolopyrimidines as JAK inhibitors” (Incyte Corporation, priority 2010, dated 2015).

Experiments:
[1] = target: T1, human JAK1 (a.a. 837-1142) catalytic domain (Homo sapiens, UniProt P23458); test: In vitro JAK kinase assay (HTRF, phosphorylation of biotinylated peptide), JAK1; type: biochemical; conditions: ATP 1 mM
T1 construct: human JAK1 (a.a. 837-1142); His tag (N); made in house; host or cells: insect cells (baculovirus)
Description: Compounds herein were tested for inhibitory activity of JAK targets according to the following in vitro assay described in Park et al., Analytical Biochemistry 1999, 269, 94-104. The catalytic domains of human JAK1 (a.a. 837-1142) and JAK2 (a.a. 828-1132) with an N-terminal His tag were expressed using baculovirus in insect cells and purified. The catalytic activity of JAK1 and JAK2 was assayed by measuring the phosphorylation of a biotinylated peptide. The phosphorylated peptide was detected by homogenous time resolved fluorescence (HTRF). […] For the 1 mM IC50 measurements, ATP concentration in the reactions was 1 mM. Reactions were carried out at room temperature for 1 hour and then stopped with 20 μL 45 mM EDTA, 300 nM SA-APC, 6 nM Eu-Py20 in assay buffer (Perkin Elmer, Boston, Mass.). Binding to the Europium labeled antibody took place for 40 minutes and HTRF signal was measured on a Fusion plate reader (Perkin Elmer, Boston, Mass.). […] Data is indicated as ranges, wherein “+” is less than 5 nM; “++” is 5 nM to 25 nM; “+++” is greater than 25 nM to 100 nM; and “++++” is greater than 100 nM.

[2] = target: T2, JAK2 (a.a. 828-1132) catalytic domain (Homo sapiens, UniProt O60674); test: In vitro JAK kinase assay (HTRF, phosphorylation of biotinylated peptide), JAK2; type: biochemical; conditions: ATP 1 mM
T2 construct: JAK2 (a.a. 828-1132); His tag (N); made in house; host or cells: insect cells (baculovirus)
Description: Compounds herein were tested for inhibitory activity of JAK targets according to the following in vitro assay described in Park et al., Analytical Biochemistry 1999, 269, 94-104. The catalytic domains of human JAK1 (a.a. 837-1142) and JAK2 (a.a. 828-1132) with an N-terminal His tag were expressed using baculovirus in insect cells and purified. The catalytic activity of JAK1 and JAK2 was assayed by measuring the phosphorylation of a biotinylated peptide. The phosphorylated peptide was detected by homogenous time resolved fluorescence (HTRF). […] For the 1 mM IC50 measurements, ATP concentration in the reactions was 1 mM. Reactions were carried out at room temperature for 1 hour and then stopped with 20 μL 45 mM EDTA, 300 nM SA-APC, 6 nM Eu-Py20 in assay buffer (Perkin Elmer, Boston, Mass.). Binding to the Europium labeled antibody took place for 40 minutes and HTRF signal was measured on a Fusion plate reader (Perkin Elmer, Boston, Mass.). See Tables A and B for data related to compounds of the invention (at 1 mM). Data is indicated as ranges, wherein “+” is less than 5 nM; “++” is 5 nM to 25 nM; “+++” is greater than 25 nM to 100 nM; and “++++” is greater than 100 nM.

T2 sequence (O60674 828-1132): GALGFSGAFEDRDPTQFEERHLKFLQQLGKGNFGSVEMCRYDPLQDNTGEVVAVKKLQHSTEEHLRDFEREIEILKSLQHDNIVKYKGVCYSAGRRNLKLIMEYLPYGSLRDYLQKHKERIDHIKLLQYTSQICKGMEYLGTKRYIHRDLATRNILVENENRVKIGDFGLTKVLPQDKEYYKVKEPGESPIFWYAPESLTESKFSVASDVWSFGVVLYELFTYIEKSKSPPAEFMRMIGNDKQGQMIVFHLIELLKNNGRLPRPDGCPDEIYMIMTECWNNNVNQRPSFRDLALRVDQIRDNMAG
T1 sequence (P23458 849-1154): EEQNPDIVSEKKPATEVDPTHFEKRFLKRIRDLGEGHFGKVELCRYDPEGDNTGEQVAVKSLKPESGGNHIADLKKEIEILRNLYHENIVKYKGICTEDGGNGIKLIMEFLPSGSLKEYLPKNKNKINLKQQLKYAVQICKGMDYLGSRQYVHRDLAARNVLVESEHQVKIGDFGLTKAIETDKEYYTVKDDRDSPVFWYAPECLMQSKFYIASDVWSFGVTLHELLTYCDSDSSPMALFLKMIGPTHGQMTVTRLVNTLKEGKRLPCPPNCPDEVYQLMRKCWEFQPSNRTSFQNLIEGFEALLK

| SMILES | IC50 ([1]; Table A) | IC50 ([2]; Table A) | IC50 ([1]; Table B) | IC50 ([2]; Table B) |
| --- | --- | --- | --- | --- |
| N#CCC(CN1CCC(Oc2cc(F)cc(F)c2)CC1)n1cc(-c2ncnc3[nH]ccc23)cn1 (centres unmarked) [Example 1, 4-[4-(3,5-Difluorophenoxy)piperidin-1-yl]-3-[4-(7H-pyrrolo[2,3-d]pyrimidin-4-yl)-1H-pyrazol-1-yl]butanenitrile tris(trifluoroacetate)] | 5 to 25 nM | 25 to 100 nM | – | – |
| N#CCC(CN1CCC(Oc2cc(F)cc(C#N)c2)C(F)C1)n1cc(-c2ncnc3[nH]ccc23)cn1 (single isomer, unassigned) [Example 31 diastereomer 1, 3-[(1-{3-Cyano-2-[4-(7H-pyrrolo[2,3-d]pyrimidin-4-yl)-1H-pyrazol-1-yl]propyl}-3-fluoropiperidin-4-yl)oxy]-5-fluorobenzonitrile (two diastereomers)] | – | – | 5 to 25 nM | 25 to 100 nM |
| CN(Cc1cc(F)cc(OC2CCN(CC(CC#N)n3cc(-c4ncnc5[nH]ccc45)cn3)CC2)c1)C1CC1 (centres unmarked) [Example 21, 4-[4-(3-{[cyclopropyl(methyl)amino]methyl}-5-fluorophenoxy)piperidin-1-yl]-3-[4-(7H-pyrrolo[2,3-d]pyrimidin-4-yl)-1H-pyrazol-1-yl]butanenitrile] | < 5 nM | > 100 nM | – | – |
| N#CCC(CN1CCC(Oc2cc(F)cc(C#N)c2)CC1)n1cc(-c2ncnc3[nH]ccc23)cn1 (centres unmarked) [Example 6, 3-[(1-{3-Cyano-2-[4-(7H-pyrrolo[2,3-d]pyrimidin-4-yl)-1H-pyrazol-1-yl]propyl}piperidin-4-yl)oxy]-5-fluorobenzonitrile tris(trifluoroacetate)] | < 5 nM | 25 to 100 nM | – | – |
| C[C@H]1CCCN1Cc1cc(F)cc(OC2CCN(CC(CC#N)n3cc(-c4ncnc5[nH]ccc45)cn3)CC2)c1 (stereo partly drawn) [Example 29, 4-[4-(3-fluoro-5-{[(2S)-2-methylpyrrolidin-1-yl]methyl}phenoxy)piperidin-1-yl]-3-[4-(7H-pyrrolo[2,3-d]pyrimidin-4-yl)-1H-pyrazol-1-yl]butanenitrile] | < 5 nM | 25 to 100 nM | – | – |
| C[C@H]1CCCN1Cc1cc(F)cc(OC2CCN(CC(CC#N)n3cc(-c4ncnc5[nH]ccc45)cn3)CC2F)c1 (single isomer, unassigned) [Example 33 diastereomer 2] | – | – | < 5 nM | 25 to 100 nM |
| N#CCC(CN1CCC(Oc2cc(F)cc(C(F)(F)F)c2)CC1)n1cc(-c2ncnc3[nH]ccc23)cn1 (centres unmarked) [Example 3, 4-{4-[3-Fluoro-5-(trifluoromethyl)phenoxy]piperidin-1-yl}-3-[4-(7H-pyrrolo[2,3-d]pyrimidin-4-yl)-1H-pyrazol-1-yl]butanenitrile tris(trifluoroacetate)] | 5 to 25 nM | > 100 nM | – | – |
| N#CCC(CN1CCC(Oc2cc(F)cc(C(=O)N3CCC(F)(F)C3)c2)CC1)n1cc(-c2ncnc3[nH]ccc23)cn1 (centres unmarked) [Example 19, 4-(4-{3-[(3,3-Difluoropyrrolidin-1-yl)carbonyl]-5-fluorophenoxy}piperidin-1-yl)-3-[4-(7H-pyrrolo[2,3-d]pyrimidin-4-yl)-1H-pyrazol-1-yl]butanenitrile] | < 5 nM | 5 to 25 nM | – | – |
| CCNC(=O)c1cc(F)cc(OC2CCN(CC(CC#N)n3cc(-c4ncnc5[nH]ccc45)cn3)CC2)c1 (centres unmarked) [Example 9, 3-[(1-{3-Cyano-2-[4-(7H-pyrrolo[2,3-d]pyrimidin-4-yl)-1H-pyrazol-1-yl]propyl}piperidin-4-yl)oxy]-N-ethyl-5-fluorobenzamide] | < 5 nM | 5 to 25 nM | – | – |
| COCCNCc1cc(F)cc(OC2CCN(CC(CC#N)n3cc(-c4ncnc5[nH]ccc45)cn3)CC2)c1 (centres unmarked) [Example 30, 4-[4-(3-fluoro-5-{[(2-methoxyethyl)amino]methyl}phenoxy)piperidin-1-yl]-3-[4-(7H-pyrrolo[2,3-d]pyrimidin-4-yl)-1H-pyrazol-1-yl]butanenitrile] | 5 to 25 nM | 25 to 100 nM | – | – |
| N#CCC(CN1CCC(Oc2cc(F)cc(C#N)c2)C(F)C1)n1cc(-c2ncnc3[nH]ccc23)cn1 (single isomer, unassigned) [Example 31 diastereomer 2, 3-[(1-{3-Cyano-2-[4-(7H-pyrrolo[2,3-d]pyrimidin-4-yl)-1H-pyrazol-1-yl]propyl}-3-fluoropiperidin-4-yl)oxy]-5-fluorobenzonitrile (two diastereomers)] | – | – | < 5 nM | 25 to 100 nM |
| CN(C)Cc1cc(F)cc(OC2CCN(CC(CC#N)n3cc(-c4ncnc5[nH]ccc45)cn3)CC2)c1 (single isomer, unassigned) [Example 20 Enantiomer 2, 4-(4-{3-[(Dimethylamino)methyl]-5-fluorophenoxy}piperidin-1-yl)-3-[4-(7H-pyrrolo[2,3-d]pyrimidin-4-yl)-1H-pyrazol-1-yl]butanenitrile (chiral)] | – | 5 to 25 nM | – | – |

The next lines start with the values.

| IC50 ([1]; Table A) | IC50 ([2]; Table A) | IC50 ([1]; Table B) | IC50 ([2]; Table B) | SMILES |
| --- | --- | --- | --- | --- |
| < 5 nM | 5 to 25 nM | – | – | N#CCC(CN1CCC(Oc2cc(F)cc(C(=O)N3CCOCC3)c2)CC1)n1cc(-c2ncnc3[nH]ccc23)cn1 (centres unmarked) [Example 18, 4-{4-[3-Fluoro-5-(morpholin-4-ylcarbonyl)phenoxy]piperidin-1-yl}-3-[4-(7H-pyrrolo[2,3-d]pyrimidin-4-yl)-1H-pyrazol-1-yl]butanenitrile] |
| < 5 nM | 5 to 25 nM | – | – | N#CCC(CN1CCC(Oc2cc(F)cc(C(=O)N3CCCCC3)c2)CC1)n1cc(-c2ncnc3[nH]ccc23)cn1 (centres unmarked) [Example 17, 4-{4-[3-Fluoro-5-(piperidin-1-ylcarbonyl)phenoxy]piperidin-1-yl}-3-[4-(7H-pyrrolo[2,3-d]pyrimidin-4-yl)-1H-pyrazol-1-yl]butanenitrile] |
| < 5 nM | 5 to 25 nM | – | – | N#CCC(CN1CCC(Oc2cc(F)cc(C(=O)N3CCCC3)c2)CC1)n1cc(-c2ncnc3[nH]ccc23)cn1 (centres unmarked) [Example 13, 4-{4-[3-Fluoro-5-(pyrrolidin-1-ylcarbonyl)phenoxy]piperidin-1-yl}-3-[4-(7H-pyrrolo[2,3-d]pyrimidin-4-yl)-1H-pyrazol-1-yl]butanenitrile tris(trifluoroacetate)] |
| < 5 nM | 5 to 25 nM | – | – | N#CCC(CN1CCC(Oc2cc(F)cc(F)c2F)CC1)n1cc(-c2ncnc3[nH]ccc23)cn1 (centres unmarked) [Example 5, 3-[4-(7H-Pyrrolo[2,3-d]pyrimidin-4-yl)-1H-pyrazol-1-yl]-4-[4-(2,3,5-trifluorophenoxy)piperidin-1-yl]butanenitrile tris(trifluoroacetate)] |
| < 5 nM | 5 to 25 nM | – | – | N#CCC(CN1CCC(Oc2cc(F)cc(C(=O)NC3CC3)c2)CC1)n1cc(-c2ncnc3[nH]ccc23)cn1 (centres unmarked) [Example 10, 3-[(1-{3-Cyano-2-[4-(7H-pyrrolo[2,3-d]pyrimidin-4-yl)-1H-pyrazol-1-yl]propyl}piperidin-4-yl)oxy]-N-cyclopropyl-5-fluorobenzamide] |
| < 5 nM | 5 to 25 nM | – | – | N#CCC(CN1CCC(Oc2cc(F)cc(CN3CCCCC3)c2)CC1)n1cc(-c2ncnc3[nH]ccc23)cn1 (centres unmarked) [Example 25, 4-{4-[3-fluoro-5-(piperidin-1-ylmethyl)phenoxy]piperidin-1-yl}-3-[4-(7H-pyrrolo[2,3-d]pyrimidin-4-yl)-1H-pyrazol-1-yl]butanenitrile] |
| < 5 nM | 5 to 25 nM | – | – | CNC(=O)c1cc(F)cc(OC2CCN(CC(CC#N)n3cc(-c4ncnc5[nH]ccc45)cn3)CC2)c1 (centres unmarked) [Example 7, 3-[(1-{3-Cyano-2-[4-(7H-pyrrolo[2,3-d]pyrimidin-4-yl)-1H-pyrazol-1-yl]propyl}piperidin-4-yl)oxy]-5-fluoro-N-methylbenzamide tris(trifluoroacetate)] |
| < 5 nM | 5 to 25 nM | – | – | CN(C)C(=O)c1cc(F)cc(OC2CCN(CC(CC#N)n3cc(-c4ncnc5[nH]ccc45)cn3)CC2)c1 (centres unmarked) [Example 8, 3-[(1-{3-Cyano-2-[4-(7H-pyrrolo[2,3-d]pyrimidin-4-yl)-1H-pyrazol-1-yl]propyl}piperidin-4-yl)oxy]-5-fluoro-N,N-dimethylbenzamide tris(trifluoroacetate)] |
| < 5 nM | < 5 nM | – | – | CC(C)(C)NC(=O)c1cc(F)cc(OC2CCN(CC(CC#N)n3cc(-c4ncnc5[nH]ccc45)cn3)CC2)c1 (centres unmarked) [Example 15, N-(tert-Butyl)-3-[(1-{3-cyano-2-[4-(7H-pyrrolo[2,3-d]pyrimidin-4-yl)-1H-pyrazol-1-yl]propyl}piperidin-4-yl)oxy]-5-fluorobenzamide tris(trifluoroacetate)] |
